The results in this text go back to a melting point compilation (Tetko et al.; mined from patent text by program, amines drawn as free bases though some values may be those of a salt).

In turn, `CC#CCOc1cccc(S(=O)(=O)N(C)C(C(=O)NO)c2ccc(OCCCNC(=O)OCC)cc2)c1` (stereo not given) returned a melting point of 60 to 62 °C.
With `O=C(Nc1ccc2cc(CN3CCCC3)cnc2c1F)c1ccc(-c2ccccc2)cc1` the figure was 186 to 188 °C; with `Nc1nc2ccc(Oc3ccc4c(c3)OCO4)cc2s1`, 154 to 157 °C; with `CON=C1SC(C)(c2ccccc2)C(=O)N1Nc1ccccc1` (stereo not given), 133 to 134 °C.
In the case of `Cc1ccc2sc3ncc(C(=O)Nc4nnn[nH]4)c(=O)n3c2c1`, the melting point was > 300 °C.
As for `N#CCOc1ccc(O)c([N+](=O)[O-])c1`, the melting point was 113 to 114 °C.
The figure for `CC1(CN2CCC(n3c(=O)[nH]c4ccccc43)CC2)OCc2ccccc2-n2cccc21` (stereo not given) is 199 to 201 °C; for `Cc1ccn(-c2ccc(C)c(C(=O)N3Cc4cccnc4Nc4ccccc43)c2)n1` it is 209 to 210 °C.
With `O=C(O)[C@@H]1CCCN1S(=O)(=O)c1cc(Cl)cc(Cl)c1O` the figure was 107 °C; with `CC(C)c1ccc2c(c1)OC1(O)c3ccccc3C(=O)C21O` (stereo not given), 195 to 198 °C; with `CCc1nn(CC)c(C(N)=O)c1Cc1ccc2oc(-c3ccccc3C(=O)O)c(Br)c2c1`, 171 to 172 °C.
As to `COCCn1nc2c(N)nc3c(c2c1CC(C)(C)O)CCCC3`, the melting point was in the range of 163 to 165 °C.
Regarding `O=C(Cc1ccccc1Cl)N1CCCc2ncc3ccccc3c21`, the melting point lay in the range of 176 to 178 °C.
The figure for `COc1ccccc1-c1ccc2c(c1)CCCc1c-2nc2ccc(F)cc2c1C(=O)O` is > 300 °C; for `Cc1cc(NC(=O)c2c(Cl)cccc2Cl)c2nccc(-n3ccnc3)c2c1` it is 260 to 261 °C.
The figure for `CCC(O)(Cn1cncn1)c1ccc(Oc2ccc(Cl)cc2)cc1Cl` (stereo not given) is 140 to 142 °C; for `CCc1cn2ccccc2c1S(=O)(=O)c1ccc(OCCCBr)cc1` it is 136 °C; for `Cc1oc(-c2ccccc2)nc1COc1ccc(CCl)cn1` it is 86 to 87 °C.
The figure for `Cc1c2n(c(=O)n(Cc3ccccc3)c1=O)CCCS2` is 141 to 142 °C.
Regarding `CCCCc1ccc(-c2ccc(-c3ccc(CC)cc3)cc2F)s1`, the melting point was determined as 37 °C.
With `CCCN(CCC)C1Cc2cccc3nc(N)n(c23)C1` (stereo not given) the figure was 160 to 170 °C; with `CN1C(=O)C(C(=O)Nc2nccs2)Sc2ccccc21` (stereo not given), 234 to 235 °C.
The figure for `CC(C)(C)OC(=O)N(C(=N)N)C(=O)OC(C)(C)C` is 144 to 145 °C.
With `FC(F)(F)c1cc(N=NNc2cc(C(F)(F)F)cc(C(F)(F)F)c2)cc(C(F)(F)F)c1` the figure was 137 to 138 °C; with `CC(N)C(=O)NC(Cc1ccccc1)C(=O)NCC(=O)Oc1c(Cl)c(Cl)c(Cl)c(Cl)c1Cl` (stereo not given), 180 to 183 °C.
`COC(=O)C(O)CC1CCC(=O)N1` (stereo not given) yielded a melting point of 87 to 90 °C.
As to `CCCC/C=C\CCCCOc1cccc(C(N)=O)c1`, the melting point lay within 98 to 100 °C.
With `CCNC(=O)c1ccnc([N+](=O)[O-])c1` the figure was 65 to 67 °C; with `COC(=O)C1=C(C)NC(C)=C(c2nc(C)no2)C1c1cccc([N+](=O)[O-])c1` (stereo not given), 221 to 222 °C.
The figure for `CC1(C)CN(CC2COc3ccccc3C2)c2nc(-c3ccncn3)cc(=O)n2C1` (racemic) is 84 to 86 °C; for `CCOC(=O)c1cc(-c2ccc(-c3ccco3)cc2)n(-c2ccc(S(C)(=O)=O)c(F)c2)n1` it is 172 °C; for `CCCCOc1cc(F)ccc1[N+](=O)[O-]` it is 75 to 76 °C.
Turning to `COC(=O)CCc1cc2cc(C#N)ccc2o1`, the melting point was 91 to 92 °C.
`CC(C)(C)NS(=O)(=O)c1ccccc1-c1ccc(NC(=O)C(=O)O)cc1`: the melting point came out at 159 °C.
For the compound `C=CC(Cc1ccccc1)(C(=O)O)N(Cc1ccccc1)C(=O)OCc1ccccc1` (stereo not given), the melting point lay within 68 to 70 °C.
`CC(C)c1cccc(C(C)C)c1NC(=O)N(Cc1ccc(N(C)C)cc1)c1ccc(Br)cc1` showed a melting point of 165 to 166 °C.
With `CN(CCOc1ccc([N+](=O)[O-])cc1F)c1ccccn1` the figure was 95 to 96 °C; with `C[C@]1(COc2ccc(N3CCN(C(=O)OCc4ccc(Cl)cc4)CC3)cc2)Cn2cc([N+](=O)[O-])nc2O1`, 184 to 188 °C.
The figure for `CC(C)Cn1c(=O)n(C)c(=O)c2cc(C(=O)c3cccc4ccccc34)sc21` is 150 °C; for `CCCc1nc2c(N)nc(C)c(C)c2n1CCCCN(O)C(=O)Nc1ccccc1` it is 159 to 160 °C.
With `C=C(C(=O)O)c1ccc(Cl)cc1`, the melting point worked out at 110 °C.
The compound `CNC(=NC#N)NCCS(=O)Cc1nsc(NC(=N)N)n1` (stereo not given) showed a melting point of 185 to 186 °C.
The figure for `CCN(CC)CC1CCCCN1CCNC(=O)N1c2cccnc2NC(=O)c2c1c(C)nn2C` (stereo not given) is 138 to 139 °C; for `COn1cc(C(=O)NCc2ccc(Cl)cc2)c(=O)c2ccccc21` it is 155 to 160 °C; for `CNC(=O)c1cc(Oc2ccc(NC(=O)Nc3ccc4c(c3)C(F)(F)OC(F)(F)O4)c(S(C)(=O)=O)c2)ccn1` it is 222 to 224 °C.
`CC(C)(C)c1ccc(CCC(=O)CCC2CCCCCC2)cc1NC(=O)CC1c2ccccc2Oc2ccccc21` displayed a melting point of 136 to 137 °C.
The figure for `CCCCOc1ccccc1Nc1ncc(C(=O)OCC)c(=O)[nH]1` is 209 to 211 °C; for `CN(C)CCC(c1ccc(C(=O)NN)cc1)c1ncc[nH]1` (stereo not given) it is 168 to 170 °C.
In the case of `CNCCOc1ccc(NC(=O)c2ccc(N3CCNCC3)cc2)c(C)c1`, the melting point was in the range of 136 to 137 °C.
Take `Cc1nc(N2CCc3ccccc3CC2)c(C#N)c(=O)n1CCN(C)C`: the melting point is 134 to 139 °C.
Turning to `O=C(NCCCCCCCCn1ccnc1)c1cc2cc(Cl)ccc2[nH]1`, the melting point was in the range of 187 to 189 °C.
`Fc1ccc(-c2n[nH]cc2-c2ccnc(Nc3ccccc3F)n2)cc1` returned a melting point of 239 to 240 °C.
The figure for `O=C(O)C(=O)c1ccc(OCCCc2ccccc2)cc1` is 58 to 59 °C; for `NCCCCc1cccc(C2=NNC(=O)CC2)c1` it is 128 to 130 °C.
The figure for `O=C(NC1Cc2ccc([N+](=O)[O-])cc2C1)c1ccc(F)cc1` (stereo not given) is 167 °C; for `CC(C)c1c(/C=C/C=O)c(-c2ccccc2)c2c3ccccc3cnn12` it is 162 to 164 °C.
With `COc1nc2cccc(C=O)c2nc1OC` the figure was 137 to 140 °C.
As for `CCOC(=O)c1c(Cl)nc2cc3c(cc2c1CCl)OCCO3`, the melting point is > 260 °C.
With `Cc1nnc2c3[nH]cnc3n(Cc3ccccc3)c(=O)n12` the figure was 309 to 310 °C; with `CCOC(=O)c1c(C(F)(F)F)nc(C(F)(F)F)c(C(=O)OCC)c1OC`, 46.5 to 47.5 °C.
For the compound `Cc1oc(-c2ccccc2)nc1Cc1cccc(CC2COC(C)(C)OC2)c1`, the melting point is 85 to 87 °C.
`CC(C)(C(=O)c1ccccc1OCC(=O)O)N1CCN(c2ccncc2)CC1` showed a melting point of 278 to 279 °C.
Turning to `N#Cc1ccc2oc(C(=O)CBr)cc2c1`, the melting point is 156 to 158 °C.
With `CNC(=O)N(O)C(C)c1ccc(C(F)(F)F)cc1` (stereo not given) the figure was 124 to 125 °C; with `Nc1ccc(-c2cn(C3CCN(Cc4ccccc4)CC3)c3ncnc(N)c23)cc1F`, 141 to 142 °C.
The figure for `O=c1[nH]c(C(F)(F)F)c(Br)c(=O)n1-c1c(Cl)cc(Cl)cc1Cl` is 219 to 222 °C.
With `CCC(=O)NS(=O)(=O)c1ccc(-c2cc(-c3nc(-c4ccc(C(F)(F)F)cc4)cc(C(F)(F)F)n3)ccn2)s1` the figure was 257 °C.
Regarding `Cc1cc(CC(C)(C)CO)cc(C)c1O`, the melting point fell in the range of 133 to 134 °C.
For `COc1ccc(CSC2CC(=O)N2CC(=O)NCCCCCCc2ccc(F)cc2)cc1` (stereo not given), the melting point fell in the range of 53 to 55 °C.
Turning to `COc1ccccc1CN1CCN(C)CC1C1=NCCN1` (stereo not given), the melting point was 168 to 170 °C.
`COC(=O)c1ccc(OC)c(/C=C/C(=O)N(C(C)C)C(C)C)c1`: the melting point is 139 to 140 °C.
In the case of `CS(=O)(=O)c1ccc(-n2cnc3ccc(-c4nnc(CCc5cccc(C#N)c5)o4)cc32)cc1`, the melting point fell in the range of 225 to 226 °C.
As to `O=C(O)CCC(=NO)c1ccc(-n2cccn2)cc1`, the melting point is 128 to 130 °C.
For `CCOC(=O)c1cn(-c2nc(NC(C)(C)C)c(F)cc2F)c2c(F)c(F)c(F)cc2c1=O`, the melting point was in the range of 174 to 178 °C.
With `Cc1oc2ccc(Nc3ncccc3N)cc2c1C` the figure was 168 to 170 °C.
The figure for `CCON=C(CC)C1=C(O)CC(c2ccc(C(=O)OC)cc2)CC1=O` (stereo not given) is 75 to 76 °C; for `C=CCc1c(C)nc(C)nc1NCc1ccc(-c2ccccc2-c2nnn[nH]2)cc1` it is 259 to 260 °C; for `COc1c(C)c(C)c(OC)c(N)c1N` it is 107 to 110 °C.
`CC(O)CN(CC(=O)O)CC(C)O` (stereo not given) returned a melting point of 145 °C.
The figure for `O=C(Nc1ccc(CCc2ccc(O)c(O)c2)cc1)C(=O)C1=C(O)c2ccccc2SC1` is 166 to 167 °C; for `CC#CCOc1cc(Oc2ccc(F)cc2)ncn1` it is 116 °C; for `C#CCN(C(=O)c1cnc(Cl)nc1C(F)(F)F)S(=O)(=O)c1cccc(Cl)c1` it is 106 to 107 °C.
The compound `CC#CCOc1cc(Oc2ccc(C#N)cc2)ncn1` came in with a melting point of 162 °C.
With `CCCCC[C@H]1CC[C@H](CCc2ccc(CCC)c(C#N)c2C#N)CC1` the figure was 83.6 °C; with `CC#CCC/C=C/CC(=O)O`, 43 to 45 °C; with `COC(=O)c1cc(C(C)OC)c(C(F)(F)F)cc1N` (stereo not given), 112 to 114 °C.
The figure for `[N-]=[N+]=NCC(=O)Nc1ccc(S(=O)(=O)c2ccc(F)cc2)cc1` is 181 to 184 °C.
Consider `Cc1nc(OC(C)C(=O)O)nn1-c1cccc(Cl)c1` (stereo not given), for which the melting point fell in the range of 101 to 103 °C.
Turning to `CC(C)C(NC(=O)c1ccccc1)C(O)C(F)(F)F` (stereo not given), the melting point was 150 °C.
For the compound `O=C(O)c1ccc(CN(C(=O)Nc2cc(C(F)(F)F)cc(C(F)(F)F)c2)c2ccc(C3CCCCC3)cc2)cc1`, the melting point is 148 to 150 °C.
